Marks after values point to notes of the source that are not given here.
Tests used:
green peppers = assay: CSVT, green peppers; assay type: in vivo, pepper
Description: (§1) In this experiment the tolerance of maize, soybean and pepper seeds treated with the active agent against cold was tested. This test imposed temperature and oxygen deficiency stresses on the seeds and was carried out according to Barla-Szabó and Dolinka CSVT (Complex Stressing Vigour Test). For a single test, two hundred seeds were soaked for 48 hours at 25° C. and another 48 hours at 5° C in 150 ml distilled water containing the active agent in 10 mg/l concentration. Following the 96 hours of soaking, the seeds were further germinated between rolled wet paper for 96 hours at 25° C. There were 25 seeds in each roll, the rolls were placed vertically into containers and covered with a plastic bag in order to reduce evaporation. During the whole procedure the seeds were kept in darkness.
(§2) At the end of the experiment the number of normally developing and ungerminated seeds were recorded. The length of the normal seedlings was measured and the average length of the five longest seedlings was calculated. Seedlings longer than 0.33 times the average length of the five longest seedlings were considered to be of high vigour, and low vigour seedlings were shorter than this length.
Under the circumstances of the CSVT test, they increased the length of the sprouts and the roots along with the proportion of the high vigour seedlings. […]

McCall soybeans [1] = assay: CSVT with PVA-pearled McCall soybeans, relative length; assay type: in vivo, soybean; settings: 2.5 mg in 1 ml 2.5% PVA per 100 seeds
Description: as §1
In a further CSVT experiment also using McCall soybeans, polyvinylalcohol (PVA) was applied for pearling the seeds. The 2.5 mg doses of the active agents were dissolved in 1 ml of 2.5% PVA solution, and this quantity was applied to 100 pieces of seeds. The improvement of the chilling tolerance is observed by the significant elongation of the germ and the roots.

McCall soybeans [2] = assay: CSVT, McCall soybeans; assay type: in vivo, soybean
Description: as §1, §2
When applying the CSVT test, the following results were obtained (Table 4.).

[3] = test system: maize of low chilling tolerance (LT) population; assay: CSVT, maize population of low chilling tolerance (LT); assay type: in vivo
Description: as §1, §2
In the case of a further experiment with maize of low chilling tolerance (LT) and high chilling tolerance (HT) populations [Ref: P. Landi, E. Frascaroli, A. Lovato; EUPHYTICA 64 21-29 (1992)], the following positive effects were found (Table 3.).

soybean cv. Bólyi 44 [4] = assay: Field soybean cultivation, yield; assay type: in vivo
Description: The experiment was performed using soybean cv. Bólyi 44. Before sowing, the seeds were treated with Rhyzobium Japonicum nitrogen-binding bacterium, which forms a root nodule providing 50-70% of the nitrogen demand of the plant.
The examined compounds were applied by pearling the seeds; 1 ml of pearling agent containing 1 mg of active agent in a 5% aqueous PVA solution was used for 100 seeds.
The plants were sown after soil preparation in the autumn, using a crop rotation system, 3-5 cm deep in the ground, with a 45-50 cm row distance, a 5 cm plant distance and 450,000-500,000 plant/ha density. The date of sowing was Apr. 15, 1997. During the development of the plant, the usual cultivation procedures were followed and the usual pesticides were used. The harvest took place in September-October, with the water content of the grains being between 16-18%.

bean cv. Seaway = assay: Frost tolerance of beans; assay type: in vivo; settings: −2° C. for 8 hours
Description: Seedlings of bean cv. Seaway were cultivated under normal conditions for the first two weeks, then they were treated with 10 mg/liter and 100 mg/liter concentration solutions of the examined active agents 2 and 1 days before the initiation of the frost tolerance experiments. In the experiment, the plants were kept at −2° C. for 8 hours, then grew under normal conditions for I week, and the survival ratio was determined. 4 trays were used for each experiment and 6 seeds were planted in each tray.

soybean cv. Bólyi 44 [5] = assay: Drought tolerance of soybeans; assay type: in vivo; settings: 6 days hardening; 50 mg/liter in the water; 4 days without watering, one week regeneration
Description: Soybeans of soybean cv. Bólyi 44 were hardened for 6 days by withholding the water. This was followed by two days of watering, and the active agent was applied in the water. The concentration of the solution of the active agent was 50 mg/liter. After a 4-day-long cease of watering and a one week regeneration period, the number of surviving plants was recorded.
Watering was ceased for 10 days for a certain group of plants in the experiment. It was observed that almost every plant perished. Each of the 4 surviving plants had previously been treated with the active agent.

bean plants (cv. Seaway) = assay: Drought tolerance of beans, part b (7 days hardening); assay type: in vivo; settings: 7 days without water, 10 mg/liter and 100 mg/liter solution named, table does not say which
Text: Based on the experiences of our preliminary experiments, the plants were hardened before the application of the active agent by withholding the water for a few days, until the first signs of withering appeared. Then the plants were watered and the active agent was either dissolved in the water, or sprayed to the plants directly. Afterwards, the plants were subjected to different periods of drought according to the given experiment, watered again, and after a week-long regeneration period, the survival ratio was determined.
b) In this experiment, bean plants (cv. Seaway) were hardened for 7 days instead of the 5 days described in Part a. Then a 10 mg/liter and 100 mg/liter concentration solution of the active agent was applied two times a day for two days. Then 7 days without water followed, and after a week-long regeneration period, the results of the experiment were evaluated.

HMv09 inbred maize line = assay: CSVT, seeds soaked in active agent, HMv09 maize; assay type: in vivo; settings: seeds soaked in 10 mg/l active agent
Description: as §1, with “darkness. At the end of the experiment the number of normally developing and ungerminated seeds were recorded. The length of the normal seedlings was measured and the average length of the five longest seedlings was calculated. Seedlings longer than 0.33 times the average length of the five longest seedlings were considered to be of high vigour, and low vigour seedlings were shorter than this length.” for “darkness.”

Mo 17 inbred maize line = assay: CSVT (Complex Stressing Vigour Test), seeds soaked in active agent, Mo 17 maize; assay type: in vivo; settings: seeds soaked in 10 mg/l active agent, * = significant vs control P < 0.05
Description: as §1, with “darkness. At the end of the experiment the number of normally developing and ungerminated seeds were recorded. The length of the normal seedlings was measured and the average length of the five longest seedlings was calculated. Seedlings longer than 0.33 times the average length of the five longest seedlings were considered to be of high vigour, and low vigour seedlings were shorter than this length.” for “darkness.”

## CC(C)(C)NCC(O)CONC(=O)c1cccc(C(F)(F)F)c1.Cl (stereo not shown) [Compound 1, N-[2-hydroxy-3-(1,1-dimethylethyl-amino)propoxy]-3-trifluoromethyl-benzamide monohydrochloride]
Green peppers
  Ratio of high vigour plants (%): 47* %
McCall soybeans [1]
  Relative length (control = 100), germ: 106
  Relative length (control = 100), root: 128
McCall soybeans [2]
  Ratio of high vigour plants (%): 43* %
[3]
  Ratio of high vigour plants %, LT: 94* %
Soybean cv. Bólyi 44 [4]; seeds pearled with 1 mg active agent in 1 ml 5% PVA per 100 seeds
  Weight of the crop (kg/m^2): 0.55 kg/m^2
Soybean cv. Bólyi 44 [4]; weight of the crop
  Improvement compared to the control (%): 22.2%
Bean cv. Seaway; spraying, 100 mg/l
  Survival (%): 40* %
Bean cv. Seaway; watering, 10 mg/l
  Survival (%): 25* %
Soybean cv. Bólyi 44 [5]
  Survival (%): 25* %
Bean plants (cv. Seaway)
  Survival (%): 14* %
HMv09 inbred maize line
  Ratio of high vigour plants (%): 49* %
Mo 17 inbred maize line
  Ratio of high vigour plants (%): 29* %
